Results from patent publication US7429564B2, “Oral insulin therapy” (Emisphere Technologies, Inc., priority 2002, dated 2008).
Like-named read-outs stand apart in the source and are kept apart here.

Assay: Example 5: 4-CNAB plasma pharmacokinetics, single oral doses, healthy male volunteers
Format: in vivo, human
Details: for AUC(0-inf) / AUC(0-t) / Cmax / MRT inf / Vd/F / half-life / Tmax / MRT / MRT last: male, human, plasma; for AUC(0-inf) / AUC(0-t) / Cmax / MRT inf / Vd/F / half-life / Tmax / MRT: po; for MRT inf: read-out: 4-CNAB MRT(0-inf); for half-life: read-out: 4-CNAB t1/2 (converted); for MRT: read-out: 4-CNAB MRT(0-f); for MRT last: read-out: 4-CNAB MRT(0-t)
Description: A single center, double-blind, randomized placebo-controlled study undertaken in healthy human subjects in order to assess the safety and tolerability of escalating single oral doses of 4-CNAB capsules and insulin/4-CNAB capsules.
Within each treatment period in each group, eight subjects were planned to receive active treatment and two subjects to receive placebo. In Group 1, there were four escalating single doses of 4-CNAB (400, 800, 1400 and 2000 mg) and each subject received either all four of these escalating doses or three escalating single doses and one dose of placebo. […] In Group 3 there were three escalating oral doses of Insulin/4-CNAB (100 Units/300 mg, 100 Units/450 mg and 150 Units/100 mg) and one SC dose of 150 Units of insulin. Each subject received either all four of these treatments or three of these treatments and one placebo treatment. For all groups, there was a washout period of at least 72 hours between treatment periods.
The concentration of 4-CNAB in plasma was determined using a combination of liquid chromatography and Mass spectrometry assay known as LC-MS/MS. The method involves protein precipitation followed by separation on liquid chromatography using a Hypersil BDS column and a mobile phase consisting of methanol and acetate buffer. The eluting peaks were quantified by MS/MS. The equipment used for the determination of 4-CNAB in plasma comprises of an Agilent 1100 modular HPLC system with a Micromass Quattro Micro MS/MS detector. HPLC and AR grade chemicals and reagents were used throughout the study.
On the basis of plasma concentrations of 4-CNAB and insulin, PK analysis was performed using non-compartmental PK methods as implemented in WinNonlin™ Professional version 3.2. The profiles for insulin and C-peptide corrected insulin were evaluated up to 6 hours as food was given 6 hours following insulin treatment. The following parameters were derived for 4-CNAB: Cmax, tmax, AUC(0-t), AUC(0-inf), AUC% Extrap, Kel, t1/2, CL/F, Vd/F, MRT(0-t), MRT(0-inf) and Frel. The following parameters were derived for insulin and C-peptide corrected insulin: Cmax, tmax, AUC(0-2), AUC(0-6), AUC(0-t) and concentrations (C^b) and corresponding time (t^b) immediately prior to intervention for hypoglycemia.

[1] = 2000 mg, 4-CNAB alone 2000 mg oral
[2] = with insulin, 100 Units/300 mg oral
[3] = with insulin, 100 Units/450 mg oral
[4] = with insulin, 100 Units/600 mg oral
[5] = with insulin, 150 Units/100 mg oral
[6] = with insulin, 150 Units/200 mg oral

Structure (SMILES): O=C(O)CCCNC(=O)c1ccc(Cl)cc1O [4-CNAB, 4-[(4-chloro, 2-hydroxybenzoyl)amino]butanoic acid]
- AUC(0-inf) [1]: 192000 ± 37100 ng·h/mL
- AUC(0-t) [1]: 204000 ± 103000 ng·h/mL
- Cmax [1]: 135000 ± 86600 ng/mL
- MRT inf [1]: 7.45 ± 2.36 h
- Vd/F (2000 mg, 4-CNAB alone 2000 mg oral, read-out: 4-CNAB Vd/F): 245 ± 131 L
- half-life [1]: 15.3 ± 6.9 h
- Tmax (2000 mg, 4-CNAB alone 2000 mg oral, read-out: 4-CNAB tmax, median (range)): 0.75 h
- AUC(0-inf) [2]: 9240 ± 5940 ng·h/mL
- AUC(0-t) [2]: 8740 ± 5520 ng·h/mL
- Cmax [2]: 8900 ± 6350 ng/mL
- MRT [2]: 1.51 ± 0.16 h
- MRT inf [2]: 2.43 ± 0.82 h
- Vd/F (with insulin, 100 Units/300 mg oral, read-out: 4-CNAB Vz/F): 324 ± 239 L
- half-life [2]: 5.3 ± 3.3 h
- Tmax (with insulin, 100 Units/300 mg oral, read-out: 4-CNAB tmax, median): 0.5 h
- AUC(0-inf) [3]: 26800 ± 4560 ng·h/mL
- AUC(0-t) [3]: 26000 ± 4410 ng·h/mL
- Cmax [3]: 23200 ± 7930 ng/mL
- MRT [3]: 1.79 ± 0.5 h
- MRT inf [3]: 2.3 ± 0.46 h
- Vd/F (with insulin, 100 Units/450 mg oral, read-out: 4-CNAB Vz/F): 101 ± 35 L
- half-life [3]: 4.1 ± 1.2 h
- Tmax (with insulin, 100 Units/450 mg oral, read-out: 4-CNAB tmax, median): 0.5 h
- AUC(0-inf) [4]: 37600 ± 5430 ng·h/mL
- AUC(0-t) [4]: 36600 ± 5760 ng·h/mL
- Cmax [4]: 35800 ± 12300 ng/mL
- MRT [4]: 1.45 ± 0.17 h
- MRT inf [4]: 1.9 ± 0.58 h
- Vd/F (with insulin, 100 Units/600 mg oral, read-out: 4-CNAB Vz/F): 96 ± 35 L
- half-life [4]: 4.1 ± 1.2 h
- Tmax (with insulin, 100 Units/600 mg oral, read-out: 4-CNAB tmax, median): 0.5 h
- AUC(0-inf) [5]: 4920 ± 1100 ng·h/mL
- AUC(0-t) [5]: 4680 ± 1080 ng·h/mL
- Cmax [5]: 6200 ± 3600 ng/mL
- MRT [5]: 1.42 ± 0.56 h
- MRT inf [5]: 2.39 ± 1.39 h
- Vd/F (with insulin, 150 Units/100 mg oral, read-out: 4-CNAB Vz/F): 148 ± 102 L
- half-life [5]: 4.8 ± 3.4 h
- Tmax (with insulin, 150 Units/100 mg oral, read-out: 4-CNAB tmax, median): 0.5 h
- AUC(0-inf) [6]: 10300 ± 2080 ng·h/mL
- AUC(0-t) [6]: 10000 ± 1890 ng·h/mL
- Cmax [6]: 10100 ± 5090 ng/mL
- MRT [6]: 1.59 ± 0.23 h
- MRT inf [6]: 1.97 ± 0.39 h
- Vd/F (with insulin, 150 Units/200 mg oral, read-out: 4-CNAB Vz/F): 89 ± 35 L
- half-life [6]: 3.2 ± 1.4 h
- Tmax (with insulin, 150 Units/200 mg oral, read-out: 4-CNAB tmax, median): 0.5 h
- MRT last (4-CNAB alone 400 mg oral): 1.6 ± 0.23 h
- MRT last (4-CNAB alone 800 mg oral): 1.75 ± 0.22 h
- MRT last (4-CNAB alone 1400 mg oral): 1.6 ± 0.2 h
- MRT last (4-CNAB alone 2000 mg oral): 1.73 ± 0.31 h
- 4-CNAB Cl/F [2]: 834 ± 527 mL/min
- 4-CNAB Kel [2]: 0.19 ± 0.12 h⁻¹
- 4-CNAB Cl/F [3]: 287 ± 49 mL/min
- 4-CNAB Kel [3]: 0.185 ± 0.06 h⁻¹
- 4-CNAB Cl/F [4]: 271 ± 38 mL/min
- 4-CNAB Kel [4]: 0.19 ± 0.06 h⁻¹
- 4-CNAB Cl/F [5]: 352 ± 68 mL/min
- 4-CNAB Kel [5]: 0.22 ± 0.14 h⁻¹
- 4-CNAB Cl/F [6]: 338 ± 75 mL/min
- 4-CNAB Kel [6]: 0.25 ± 0.09 h⁻¹
